What all share (assay type): cell-based, human
For experiment [1], the system named is SERPINE1prom-Luc reporter in NAMEC8 cells. The experiment is described as follows: Dual-Glo luciferase assay of SERPINE1prom-Luc reporter (FF/Ren). The following applies: Homo sapiens, 72 h, primary screen; NAMEC8-SERPINE1prom-Luc cells grown 3 days with compound; relative to DMSO; read-out: Avr FF/Renilla from DMSO.
The subject of experiment [2] is Estrogen response element (ERE)-luciferase reporter in NAMEC8. The experiment is described as follows: ERE-luciferase activity assay. The procedure:
ERE luciferase construct was kindly provided by Alan Prem Kumar, CSI, Singapore. To measure the ERE-luciferase activity, cells were seeded 24 h before transfection. ERE-luciferase (1 μg) and NSV-Renilla (0.1 μg) were packaged using Lipofectamine 2000 and transfected into NAMEC8. 24 h post-transfection, cells were reseeded into 96 well plates for drug treatment. Firefly and Renilla luciferase activities were measured with the Dual-Glo Luciferase System (Promega) 24 h post-treatment.

Another experiment has as its system SUM159 PACR cells. The experiment is described as follows: Mammosphere assay, SUM159 PACR cells.
The subject of a further experiment is NAMEC8. The experiment is described as follows: Lipidomic analysis (LC-MS/MS). The following applies: NAMEC8 bexarotene vs DMSO. An excerpt:
Lipids from cell pellets were extracted using butanol:methanol (1:1) as extraction solvent. The extraction solvent included an internal standard mixture consisting of 17:0 LPC (Lysophosphocholine), C14 LPE (Lysophosphoethanolamine), C17 Ceramide, C17 phosphocholine, C17 phosphoserine, C17:0 PG, C8-Ceramide, DMPE (1,2-dimyristoyl-glycero-3-phosphoethanolamine), DMPG (1,2-dimyristoyl-glycero-3-phospho-(1′rac-glycerol), DMPS (dimyristoyl-glycero-phosphoserine), 12:0 DG (1,2-dilauroyl-sn-glycerol), C8 GluCer (D-glucosyl-β1-1′-N-octanoyl-D-erythro-sphingosine), 24:0 SM (N-lignoceroyl-D-erythro-sphingosylphosphorylcholine), 24:1 SM (N-nervonoyl-D-erythro-sphingosylphosphorylcholine), d5-TAG 48:0. All the standards were obtained from Avanti Polar Lipids (Alabaster, AL, USA) except for d5-TAG 48:0 that was obtained from CDN isotopes. All standards were added to a final concentration of 100 ng/ml. 100 μl of the extraction solvent including the standards were added to 1×10^7 cells in a vial containing the cell pellet. The mixture was vortexed for 15 s. […]
Samples were analysed with a liquid chromatography-tandem mass spectrometry (LC-MS/MS) system (Agilent 1290 UHPLC connected to Agilent 6490 QQQ). […] Lipids were quantified in positive multiple reaction monitoring (MRM) mode. […] Data were extracted using MassHunter Quantitative Analysis software (Agilent). […]

Procedure for SUM159 PACR cells: For mammosphere culture, cells were seeded onto 96-well ultralow-adherence plates at 700 cells/well in Mammocult medium (Stem Cell Technologies) supplemented with 4 μg/ml heparin, 0.5 μg/ml hydrocortisone and 1% methylcellulose. Spheres (>100 μm) were counted at 7-10 days later.

With `C=C(c1ccc(C(=O)O)cc1)c1cc2c(cc1C)C(C)(C)CCC2(C)C` [Bexarotene], the activity at 10 µM in experiment [1] is 31%. Moreover, the ERE-luciferase reporter activity result in experiment [2] is “increased”. The mammosphere-forming ability result with SUM159 PACR cells is on record as “reduced mammosphere-forming ability”. Further, the “lipid species content (PI, PG, PC, PE, PS)” value in the experiment with NAMEC8 is given as “dramatically increased”.

For the origin of these results see patent publication US12667546B2, “Methods for manipulating cell state transitions in cancer” (AGENCY FOR SCIENCE, TECHNOLOGY AND RESEARCH, priority 2018, dated 2026).
